According to US10376520B2, “Methods for the treatment of cardiovascular disorders” (Galapagos NV, priority 2015, dated 2019):

System: Subjects With Active Crohn's Disease
Assay: Atherogenic index, Study 5 (Crohn's disease)
Format: in vivo, human
Conditions: for Atherogenic index Mean CFB - 10 weeks results / Atherogenic index Mean percentage CFB - 10 weeks results / Atherogenic index Median CFB - 10 weeks results: 200 mg q.d.
Excerpt: As used herein, the term ‘atherogenic index’ refers to
This is a double-blind, randomized, placebo-controlled, multi-centre Phase 2 study to investigate the efficacy and safety of Compound 1 administered once daily for the treatment of active CD with evidence of mucosal ulceration. The pharmacokinetics (including a PK substudy) and pharmacodynamics of Compound 1 and metabolite in CD will also be characterised.
A total of 180 eligible subjects will be randomized to receive Compound 1 or placebo in addition to their stable background treatment (eg, corticosteroids, aminosalicylates, or CD-related antibiotics). The study will consist of 2 parts, with total treatment duration of 20 weeks. Randomization in Part 1 will be stratified according the subject's previous anti-TNF exposure/response, CRP level at Screening, and oral corticosteroid use at visit Day −1.
After the first 10 weeks of treatment in Part 1, patients will be re-randomized for Part 2 as shown in the diagram below and will be stratified according to the subject's clinical response, previous anti-TNF exposure/response, and oral corticosteroid use at visit Day −1.
The atherogenic index has been identified to be a good predictor of cardiovascular disorders risks and is calculated as follows: […]

[1] = 200 mg q.d. continued week 10 to 20, week 2
[2] = 200 mg q.d. continued week 10 to 20, week 4
[3] = 200 mg q.d. continued week 10 to 20, week 6
[4] = 200 mg q.d. continued week 10 to 20, week 10
[5] = 200 mg q.d. continued week 10 to 20, week 12
[6] = 200 mg q.d. continued week 10 to 20, week 16
[7] = 200 mg q.d. continued week 10 to 20, week 20
[8] = 200 mg q.d. week 0 to 10, to 100 mg q.d. week 10 to 20, week 2
[9] = 200 mg q.d. week 0 to 10, to 100 mg q.d. week 10 to 20, week 4
[10] = 200 mg q.d. week 0 to 10, to 100 mg q.d. week 10 to 20, week 6
[11] = 200 mg q.d. week 0 to 10, to 100 mg q.d. week 10 to 20, week 10
[12] = 200 mg q.d. week 0 to 10, to 100 mg q.d. week 10 to 20, week 12
[13] = 200 mg q.d. week 0 to 10, to 100 mg q.d. week 10 to 20, week 16
[14] = 200 mg q.d. week 0 to 10, to 100 mg q.d. week 10 to 20, week 20
[15] = 200 mg q.d. week 0 to 10, to placebo week 10 to 20, week 2
[16] = 200 mg q.d. week 0 to 10, to placebo week 10 to 20, week 4
[17] = 200 mg q.d. week 0 to 10, to placebo week 10 to 20, week 6
[18] = 200 mg q.d. week 0 to 10, to placebo week 10 to 20, week 10
[19] = 200 mg q.d. week 0 to 10, to placebo week 10 to 20, week 12
[20] = 200 mg q.d. week 0 to 10, to placebo week 10 to 20, week 16
[21] = 200 mg q.d. week 0 to 10, to placebo week 10 to 20, week 20
[22] = placebo week 0 to 10, to 100 mg q.d. week 10 to 20, week 12
[23] = placebo week 0 to 10, to 100 mg q.d. week 10 to 20, week 16
[24] = placebo week 0 to 10, to 100 mg q.d. week 10 to 20, week 20

In the case of `O=C(Nc1nc2cccc(-c3ccc(CN4CCS(=O)(=O)CC4)cc3)n2n1)C1CC1` [Compound 1, cyclopropanecarboxylic acid {5-[4-(1,1-dioxo-thiomorpholin-4-ylmethyl)-phenyl]-[1,2,4]triazolo[1,5-a]pyridin-2yl}-amide], the “Atherogenic index Mean percentage CFB - 20 weeks results” value [1] is reported as −6.93%, the “Atherogenic index Median CFB - 20 weeks results” value [1] is reported as -0.25 mmol/L and the “Atherogenic index Mean percentage CFB - 20 weeks results” value [2] is reported as −6.67%. The “Atherogenic index Median CFB - 20 weeks results” value [2] was -0.21 mmol/L, the “Atherogenic index Mean percentage CFB - 20 weeks results” value [3] was −8.51% and the “Atherogenic index Median CFB - 20 weeks results” value [3] was -0.22 mmol/L. For the same molecule, the “Atherogenic index Mean percentage CFB - 20 weeks results” value [4] was −3.49%, the “Atherogenic index Median CFB - 20 weeks results” value [4] was -0.13 mmol/L and the “Atherogenic index Mean percentage CFB - 20 weeks results” value [5] was −1.27%. The “Atherogenic index Median CFB - 20 weeks results” value [5] was -0.13 mmol/L, the “Atherogenic index Mean percentage CFB - 20 weeks results” value [6] was −0.22% and the “Atherogenic index Median CFB - 20 weeks results” value [6] was -0.06 mmol/L. The “Atherogenic index Mean percentage CFB - 20 weeks results” value [7] was 3.38%, the “Atherogenic index Median CFB - 20 weeks results” value [7] was 0.01 mmol/L and the “Atherogenic index Mean percentage CFB - 20 weeks results” value [8] was −12.02%. For the same molecule, the “Atherogenic index Median CFB - 20 weeks results” value [8] was -0.37 mmol/L, the “Atherogenic index Mean percentage CFB - 20 weeks results” value [9] was −12.95% and the “Atherogenic index Median CFB - 20 weeks results” value [9] was -0.38 mmol/L. For the same molecule, the “Atherogenic index Mean percentage CFB - 20 weeks results” value [10] was −13.82%, the “Atherogenic index Median CFB - 20 weeks results” value [10] was -0.48 mmol/L and the “Atherogenic index Mean percentage CFB - 20 weeks results” value [11] was −11.54%. The “Atherogenic index Median CFB - 20 weeks results” value [11] was -0.48 mmol/L, the “Atherogenic index Mean percentage CFB - 20 weeks results” value [12] was −5.12% and the “Atherogenic index Median CFB - 20 weeks results” value [12] was -0.25 mmol/L. The “Atherogenic index Mean percentage CFB - 20 weeks results” value [13] was −4.54%, the “Atherogenic index Median CFB - 20 weeks results” value [13] was -0.15 mmol/L and the “Atherogenic index Mean percentage CFB - 20 weeks results” value [14] was −8.14%. The “Atherogenic index Median CFB - 20 weeks results” value [14] was -0.39 mmol/L, the “Atherogenic index Mean percentage CFB - 20 weeks results” value [15] was −7.38% and the “Atherogenic index Median CFB - 20 weeks results” value [15] was -0.31 mmol/L. The “Atherogenic index Mean percentage CFB - 20 weeks results” value [16] was −10.10%, the “Atherogenic index Median CFB - 20 weeks results” value [16] was -0.29 mmol/L and the “Atherogenic index Mean percentage CFB - 20 weeks results” value [17] was −2.55%. For the same molecule, the “Atherogenic index Median CFB - 20 weeks results” value [17] was -0.14 mmol/L, the “Atherogenic index Mean percentage CFB - 20 weeks results” value [18] was −5.14% and the “Atherogenic index Median CFB - 20 weeks results” value [18] was -0.19 mmol/L. The “Atherogenic index Mean percentage CFB - 20 weeks results” value [19] was 9.34%, the “Atherogenic index Median CFB - 20 weeks results” value [19] was 0.14 mmol/L and the “Atherogenic index Mean percentage CFB - 20 weeks results” value [20] was 19.14%. The “Atherogenic index Median CFB - 20 weeks results” value [20] was 0.35 mmol/L, the “Atherogenic index Mean percentage CFB - 20 weeks results” value [21] was 19.82% and the “Atherogenic index Median CFB - 20 weeks results” value [21] was 0.38 mmol/L. For the same molecule, the “Atherogenic index Mean CFB - 10 weeks results” value (from here on “Atherogenic index Mean CFB”) (week 2) was -0.31 mmol/L, the “Atherogenic index Mean percentage CFB - 10 weeks results” value (week 2) was −8.20% and the “Atherogenic index Median CFB - 10 weeks results” value (week 2) was -0.31 mmol/L. For the same molecule, the “Atherogenic index Mean CFB” value (week 4) was -0.33 mmol/L, the “Atherogenic index Mean percentage CFB - 10 weeks results” value (week 4) was −8.79% and the “Atherogenic index Median CFB - 10 weeks results” value (week 4) was -0.28 mmol/L. For the same molecule, the “Atherogenic index Mean CFB” value (week 6) was -0.32 mmol/L, the “Atherogenic index Mean percentage CFB - 10 weeks results” value (week 6) was −8.69% and the “Atherogenic index Median CFB - 10 weeks results” value (week 6) was -0.29 mmol/L. The “Atherogenic index Mean CFB” value (week 10) was -0.25 mmol/L, the “Atherogenic index Mean percentage CFB - 10 weeks results” value (week 10) was −5.98% and the “Atherogenic index Median CFB - 10 weeks results” value (week 10) was -0.21 mmol/L. For the same molecule, the “Atherogenic index Mean percentage CFB - 20 weeks results” value [22] was 0.84%, the “Atherogenic index Median CFB - 20 weeks results” value [22] was -0.10 mmol/L and the “Atherogenic index Mean percentage CFB - 20 weeks results” value [23] was −0.97%. The “Atherogenic index Median CFB - 20 weeks results” value [23] was -0.25 mmol/L, the “Atherogenic index Mean percentage CFB - 20 weeks results” value [24] was 3.17% and the “Atherogenic index Median CFB - 20 weeks results” value [24] was -0.10 mmol/L.
